“And” between values parts separate entries of the source, which are not always exact repeats. Equal values may be shown once.
Tested on: 425362-245-T-J1 tumor spheroids, viability % test/control
Assay: Anticancer human tumor 425362-245-T-J1 patient-derived melanoma cell line growth inhibition
Settings: spheroids with HUVEC and MSC; for viability, T/C: stronger effect = lower value
How it was run: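 Complex tumor spheroids combined malignant cells with endothelial cells and mesenchymal stem cells. DNA-damaging drugs and DNA repair inhibitors were tested alone and in combination, at half-log dilutions down from clinical Cmax (top 10 microM if Cmax unknown), 0.25% DMSO final.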

[1] = curve of first compound, second compound 0.003 µM
[2] = curve of first compound, second compound 0.00949 µM
[3] = curve of first compound, second compound 0.03 µM
[4] = curve of first compound, second compound 0.0949 µM
[5] = curve of first compound, second compound 0.3 µM
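Note: spheroids exposed to agents for 7 days.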
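Throughout, for viability, T/C: 100% = DMSO vehicle control viability.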

Q: What does the source list for `CNCc1ccc(-c2cc(-c3nc(-c4ccc(S(=O)(=O)C(C)C)cc4)cnc3N)on2)cc1` + CC[C@@]1(O)C(=O)OCc2c1cc1n(c2=O)Cc2cc3c(CN(C)C)c(O)ccc3nc2-1?
A: IC50 [1]: 55 nM; IC50 [2]: 47.5 nM; IC50 [3]: < 9.49 nM; IC50 [4]: < 9.49 nM; IC50 [5]: < 9.49 nM; viability, T/C (second compound 0.003 µM, first compound 0.00949 µM): 75.8%; viability, T/C (second compound 0.003 µM, first compound 0.03 µM): 69.4%; viability, T/C (second compound 0.003 µM, first compound 0.0949 µM): 32.7%; viability, T/C (second compound 0.003 µM, first compound 0.3 µM): 5.49%; viability, T/C (second compound 0.003 µM, first compound 0.949 µM): 2.14%; viability, T/C (second compound 0.003 µM, first compound 3 µM): 0.22%; viability, T/C (second compound 0.00949 µM, first compound 0.00949 µM): 70%; viability, T/C (second compound 0.00949 µM, first compound 0.03 µM): 73%; viability, T/C (second compound 0.00949 µM, first compound 0.0949 µM): 17.6%; viability, T/C (second compound 0.00949 µM, first compound 0.3 µM): 4.43%; viability, T/C (second compound 0.00949 µM, first compound 0.949 µM): 2.33%; viability, T/C (second compound 0.00949 µM, first compound 3 µM): 0.18%; viability, T/C (second compound 0.03 µM, first compound 0.00949 µM): 33.9%; viability, T/C (second compound 0.03 µM, first compound 0.03 µM): 17.8%; viability, T/C (second compound 0.03 µM, first compound 0.0949 µM): 10.4%; viability, T/C (second compound 0.03 µM, first compound 0.3 µM): 2.7%; viability, T/C (second compound 0.03 µM, first compound 0.949 µM): 1.35%; viability, T/C (second compound 0.03 µM, first compound 3 µM): 0.15%; viability, T/C (second compound 0.0949 µM, first compound 0.00949 µM): 4.36%; viability, T/C (second compound 0.0949 µM, first compound 0.03 µM): 4.83%; viability, T/C (second compound 0.0949 µM, first compound 0.0949 µM): 2.64%; viability, T/C (second compound 0.0949 µM, first compound 0.3 µM): 2.59%; viability, T/C (second compound 0.0949 µM, first compound 0.949 µM): 1.05%; viability, T/C (second compound 0.0949 µM, first compound 3 µM): 0.21%; viability, T/C (second compound 0.3 µM, first compound 0.00949 µM): 1.97%; viability, T/C (second compound 0.3 µM, first compound 0.03 µM): 1.87%; viability, T/C (second compound 0.3 µM, first compound 0.0949 µM): 1.95%; viability, T/C (second compound 0.3 µM, first compound 0.3 µM): 1.64%; viability, T/C (second compound 0.3 µM, first compound 0.949 µM): 1.08%; viability, T/C (second compound 0.3 µM, first compound 3 µM): 0.28%

Q: For `[2H]c1nc(C)nc([2H])c1-c1cc(NC[C@@H](C)c2cccc3c(C(=O)NC)ccnc23)ncn1`, which viability, T/C (compound 0.0316 µM) is on record?
A: Its viability, T/C is 103% and 96.9% and 88.3%.

Q: And the viability, T/C (compound 0.1 µM)?
A: Its viability, T/C is 97.1% and 90.8% and 81.5%.

Q: What about the viability, T/C (compound 0.316 µM) of the same compound?
A: The viability, T/C was 112% and 98.8% and 69.9%.

Q: What about the viability, T/C (compound 1 µM) of the same compound?
A: The viability, T/C was 108% and 104% and 63.5%.

Q: And the viability, T/C (compound 3.16 µM)?
A: The viability, T/C was 110% and 96.8% and 52.8%.

Q: And the viability, T/C (compound 10 µM)?
A: The viability, T/C was 103% and 96.5% and 25.2%.

Q: And the IC50 (curve of compound)?
A: The IC50 was > 10000 nM and 2820 nM.

Q: `Cc1cc(C)c(CNC(=O)c2cc(-c3ccc(CN4CCOCC4)cc3)cc3c2cnn3C2CCCC2)c(=O)[nH]1` + CC[C@@]1(O)C(=O)OCc2c1cc1n(c2=O)Cc2cc3c(CN(C)C)c(O)ccc3nc2-1 was tested. Which IC50 [1] did it give?
A: Its IC50 is 3210 nM.

Q: What about the IC50 [2] of the same compound?
A: The IC50 was 1960 nM.

Q: What about the IC50 [3] of the same compound?
A: Its IC50 is < 31.6 nM.

Q: And the IC50 [4]?
A: Its IC50 is < 31.6 nM.

Q: And the IC50 [5]?
A: Its IC50 is < 31.6 nM.

Q: And the viability, T/C (second compound 0.003 µM, first compound 0.0316 µM)?
A: Its viability, T/C is 103%.

Q: And the viability, T/C (second compound 0.003 µM, first compound 0.1 µM)?
A: The viability, T/C was 81.8%.

Q: What about the viability, T/C (second compound 0.003 µM, first compound 0.316 µM) of the same compound?
A: The viability, T/C was 84%.

Q: What about the viability, T/C (second compound 0.003 µM, first compound 1 µM) of the same compound?
A: The viability, T/C was 72.9%.

Q: What about the viability, T/C (second compound 0.003 µM, first compound 3.16 µM) of the same compound?
A: Its viability, T/C is 53.1%.

Q: What about the viability, T/C (second compound 0.003 µM, first compound 10 µM) of the same compound?
A: The viability, T/C was 10.1%.

Q: What about the viability, T/C (second compound 0.00949 µM, first compound 0.0316 µM) of the same compound?
A: Its viability, T/C is 81.9%.

Q: And the viability, T/C (second compound 0.00949 µM, first compound 0.1 µM)?
A: Its viability, T/C is 75%.

Q: And the viability, T/C (second compound 0.00949 µM, first compound 0.316 µM)?
A: The viability, T/C was 79.8%.

Q: What about the viability, T/C (second compound 0.00949 µM, first compound 1 µM) of the same compound?
A: Its viability, T/C is 54.1%.

Q: What about the viability, T/C (second compound 0.00949 µM, first compound 3.16 µM) of the same compound?
A: Its viability, T/C is 45.2%.

Q: What about the viability, T/C (second compound 0.00949 µM, first compound 10 µM) of the same compound?
A: Its viability, T/C is 16.8%.

Q: What about the viability, T/C (second compound 0.03 µM, first compound 0.0316 µM) of the same compound?
A: The viability, T/C was 32.9%.

Q: And the viability, T/C (second compound 0.03 µM, first compound 0.1 µM)?
A: The viability, T/C was 37.2%.

Q: And the viability, T/C (second compound 0.03 µM, first compound 0.316 µM)?
A: The viability, T/C was 35.6%.

Q: And the viability, T/C (second compound 0.03 µM, first compound 1 µM)?
A: Its viability, T/C is 33.1%.

Q: And the viability, T/C (second compound 0.03 µM, first compound 3.16 µM)?
A: The viability, T/C was 11.7%.

Q: And the viability, T/C (second compound 0.03 µM, first compound 10 µM)?
A: The viability, T/C was 7.5%.

Q: What about the viability, T/C (second compound 0.0949 µM, first compound 0.0316 µM) of the same compound?
A: The viability, T/C was 6%.

Q: What about the viability, T/C (second compound 0.0949 µM, first compound 0.1 µM) of the same compound?
A: The viability, T/C was 6.44%.

Q: And the viability, T/C (second compound 0.0949 µM, first compound 0.316 µM)?
A: Its viability, T/C is 4.34%.

Q: And the viability, T/C (second compound 0.0949 µM, first compound 1 µM)?
A: The viability, T/C was 5.8%.

Q: What about the viability, T/C (second compound 0.0949 µM, first compound 3.16 µM) of the same compound?
A: The viability, T/C was 5.25%.

Q: What about the viability, T/C (second compound 0.0949 µM, first compound 10 µM) of the same compound?
A: The viability, T/C was 6.46%.

Q: And the viability, T/C (second compound 0.3 µM, first compound 0.0316 µM)?
A: Its viability, T/C is 1.9%.

Q: And the viability, T/C (second compound 0.3 µM, first compound 0.1 µM)?
A: The viability, T/C was 2.19%.

Q: What about the viability, T/C (second compound 0.3 µM, first compound 0.316 µM) of the same compound?
A: The viability, T/C was 2.16%.

Q: And the viability, T/C (second compound 0.3 µM, first compound 1 µM)?
A: Its viability, T/C is 2.06%.

Q: What about the viability, T/C (second compound 0.3 µM, first compound 3.16 µM) of the same compound?
A: Its viability, T/C is 2.3%.

Q: What about the viability, T/C (second compound 0.3 µM, first compound 10 µM) of the same compound?
A: The viability, T/C was 2.37%.
